{"source": "ChEMBL document CHEMBL4251603", "about": "“Structure-activity studies on N-Substituted tranylcypromine derivatives lead to selective inhibitors of lysine specific demethylase 1 (LSD1) and potent inducers of leukemic cell differentiation” (Eur J Med Chem, 2018)", "key": {"MAO-A [1]": {"molecular_target": "T1, MAO-A (Homo sapiens, UniProt P21397)", "T1 sequence (P21397 whole entry)": "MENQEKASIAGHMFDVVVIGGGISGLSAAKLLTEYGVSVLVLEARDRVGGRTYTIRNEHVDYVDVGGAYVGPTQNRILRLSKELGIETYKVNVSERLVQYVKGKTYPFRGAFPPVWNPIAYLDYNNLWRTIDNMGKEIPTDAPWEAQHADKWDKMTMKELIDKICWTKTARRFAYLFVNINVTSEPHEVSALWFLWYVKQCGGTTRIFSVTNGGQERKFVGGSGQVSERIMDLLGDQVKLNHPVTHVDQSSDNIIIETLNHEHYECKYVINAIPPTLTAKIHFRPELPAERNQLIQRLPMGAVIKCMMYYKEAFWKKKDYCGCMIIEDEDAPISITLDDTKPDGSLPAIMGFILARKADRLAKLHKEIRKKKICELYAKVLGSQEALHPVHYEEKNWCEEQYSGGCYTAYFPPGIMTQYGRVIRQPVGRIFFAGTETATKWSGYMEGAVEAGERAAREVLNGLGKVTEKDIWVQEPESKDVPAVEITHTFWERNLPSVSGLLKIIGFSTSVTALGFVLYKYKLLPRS", "experiment": "Inhibition of MAO-A (unknown origin) at 1 uM using beetle luciferin derived luminogenic substrate preincubated for 15 mins followed by substrate addition measured after 60 mins by MAO-Glo assay relative to control", "conditions": "MAO-A enzyme (unknown origin), probe beetle luciferin derived luminogenic substrate"}, "MAO-B [2]": {"molecular_target": "T2, MAO-B (Homo sapiens, UniProt P27338)", "T2 sequence (P27338 whole entry)": "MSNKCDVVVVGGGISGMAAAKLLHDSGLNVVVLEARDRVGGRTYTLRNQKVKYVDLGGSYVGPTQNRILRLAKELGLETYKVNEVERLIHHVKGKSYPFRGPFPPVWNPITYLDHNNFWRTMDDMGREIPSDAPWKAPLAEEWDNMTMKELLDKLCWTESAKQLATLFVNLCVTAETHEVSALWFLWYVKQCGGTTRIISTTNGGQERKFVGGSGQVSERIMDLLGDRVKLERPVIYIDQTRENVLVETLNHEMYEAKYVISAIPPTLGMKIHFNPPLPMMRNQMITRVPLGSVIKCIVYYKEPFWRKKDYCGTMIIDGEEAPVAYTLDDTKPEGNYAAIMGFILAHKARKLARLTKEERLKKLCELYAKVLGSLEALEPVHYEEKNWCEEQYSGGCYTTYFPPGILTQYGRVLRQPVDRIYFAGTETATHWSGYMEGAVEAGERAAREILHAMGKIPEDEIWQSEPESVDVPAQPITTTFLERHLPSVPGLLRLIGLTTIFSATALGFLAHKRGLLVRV", "experiment": "in vitro", "conditions": "MAO-B enzyme (unknown origin), probe beetle luciferin derived luminogenic substrate"}, "[3]": {"molecular_target": "T3, Amine oxidase [flavin-containing] B (Homo sapiens, UniProt P27338)", "T3 sequence (P27338 whole entry)": "T2 sequence (P27338 whole entry)", "experiment": "(§1) Inhibition of MAO-B (unknown origin) at 10 uM using beetle luciferin derived luminogenic substrate preincubated for 15 mins followed by substrate addition measured after 60 mins by MAO-Glo assay relative to control", "conditions": "1 h, 10 µM"}, "MAO-A [4]": {"molecular_target": "T1, MAO-A", "experiment": "in vitro", "conditions": "MAO-A enzyme (unknown origin), probe beetle luciferin derived luminogenic substrate"}, "[5]": {"molecular_target": "T3, Amine oxidase [flavin-containing] B", "experiment": "Inhibition of MAO-B (unknown origin) using beetle luciferin derived luminogenic substrate preincubated for 15 mins followed by substrate addition measured after 60 mins by MAO-Glo assay"}, "[6]": {"molecular_target": "T4, Amine oxidase [flavin-containing] A (Homo sapiens, UniProt P21397)", "T4 sequence (P21397 whole entry)": "T1 sequence (P21397 whole entry)"}, "[7]": {"molecular_target": "T5, Lysine-specific histone demethylase 1A (Homo sapiens, UniProt O60341)", "conditions": "10 uM"}, "[8]": {"molecular_target": "T5, Lysine-specific histone demethylase 1A"}, "THP-1 [9]": {"tested_on": "THP-1", "experiment": "Inhibition of colony formation in human THP1 cells at 0.5 to 50 uM after […] by light microscopic method", "format": "functional, cell-based"}, "[10]": {"molecular_target": "T5, Lysine-specific histone demethylase 1A", "conditions": "100 uM"}, "MAO-B [11]": {"molecular_target": "T2, MAO-B", "experiment": "as §1", "conditions": "MAO-B enzyme (unknown origin), probe beetle luciferin derived luminogenic substrate"}, "[12]": {"molecular_target": "Lysine-specific histone demethylase 1A (Mus musculus) (UniProt Q6ZQ88)", "experiment": "Inhibition of LSD1 in mouse Hoxa9/Meis1 transformed progenitor cells assessed as reduction in c-Kit positive cells at 100 nM after 96 hrs by flow cytometry", "format": "cell-based"}, "THP-1 [13]": {"tested_on": "THP-1", "experiment": "Inhibition of colony formation in human THP1 cells at 0.5 uM after […] by light microscopic method relative to control", "format": "functional"}, "[14]": {"molecular_target": "Lysine-specific histone demethylase 1A (Mus musculus) (UniProt Q6ZQ88)", "experiment": "Inhibition of LSD1 in mouse Hoxa9/Meis1 transformed progenitor cells assessed as induction of granulocytic differentiation at 50 to 100 nM up to 96 hrs by pappenheim staining based assay"}, "[15]": {"molecular_target": "T5, Lysine-specific histone demethylase 1A", "remark": "listed apart in the source"}}, "note": "Calls of active or inactive are those of the source. The calls are words filed in the database; no cut-off is given here."}
{"smiles": "Cc1ccc(CN[C@H]2C[C@@H]2c2ccccc2)cc1Cl", "note": "(relative stereo)", "values": [{"measurement": "inhibition at 1 h, 1 µM", "setting": "MAO-A [1]", "result": 69, "unit": "%"}]}
{"smiles": "Brc1ccc(COc2ccc(CN[C@H]3C[C@@H]3c3ccccc3)cc2)cc1", "note": "(relative stereo)", "values": [{"measurement": "inhibition at 1 h, 1 µM", "setting": "MAO-B [2]", "result": 44, "unit": "%"}, {"measurement": "inhibition at 1 h, 1 µM", "setting": "MAO-A [1]", "result": 100, "unit": "%"}]}
{"smiles": "COc1ccc(CN[C@H]2C[C@@H]2c2ccccc2)cc1OC", "note": "(relative stereo)", "values": [{"measurement": "inhibition (INH)", "setting": "[3]", "result": "Not Active"}, {"measurement": "inhibition at 1 h, 10 µM", "setting": "MAO-A [4]", "result": 69, "unit": "%"}]}
{"smiles": "C[C@@H]1[C@H](NCc2cccc([N+](=O)[O-])c2)[C@H]1c1ccccc1", "note": "(relative stereo)", "values": [{"measurement": "IC50", "setting": "[5]", "result": 2200, "unit": "nM"}, {"measurement": "IC50", "setting": "[6]", "result": 237, "unit": "nM"}, {"measurement": "inhibition", "setting": "[7]", "result": "inactive"}, {"measurement": "Tm", "setting": "[8]", "result": 45.6, "unit": "°C"}, {"measurement": "inhibition", "setting": "THP-1 [9]", "result": "inactive"}]}
{"smiles": "Brc1ccc(COc2cccc(CN[C@H]3C[C@@H]3c3ccccc3)c2)cc1", "note": "(relative stereo)", "values": [{"measurement": "inhibition at 1 h, 1 µM", "setting": "MAO-B [2]", "result": 32, "unit": "%"}, {"measurement": "inhibition at 1 h, 1 µM", "setting": "MAO-A [1]", "result": 100, "unit": "%"}]}
{"smiles": "NC(=O)c1cccc(CN[C@H]2C[C@@H]2c2ccccc2)c1", "note": "(relative stereo)", "values": [{"measurement": "IC50", "setting": "[5]", "result": 95700, "unit": "nM"}, {"measurement": "IC50", "setting": "[6]", "result": 27900, "unit": "nM"}]}
{"smiles": "C[C@@H]1[C@@H](N)[C@H]1c1ccccc1.Cl", "note": "(relative stereo)", "values": [{"measurement": "inhibition (INH)", "setting": "[3]", "result": "Not Active"}, {"measurement": "inhibition", "setting": "[10]", "result": "inactive"}]}
{"smiles": "Brc1ccc(CN[C@H]2C[C@@H]2c2ccccc2)cc1", "note": "(relative stereo)", "values": [{"measurement": "inhibition at 1 h, 10 µM", "setting": "MAO-B [11]", "result": 27, "unit": "%"}, {"measurement": "inhibition at 1 h, 10 µM", "setting": "MAO-A [4]", "result": 43, "unit": "%"}]}
{"smiles": "Ic1ccccc1CN[C@H]1C[C@@H]1c1ccccc1", "note": "(relative stereo)", "values": [{"measurement": "inhibition at 1 h, 1 µM", "setting": "MAO-B [2]", "result": 16, "unit": "%"}, {"measurement": "inhibition at 1 h, 1 µM", "setting": "MAO-A [1]", "result": 12, "unit": "%"}]}
{"smiles": "c1ccc(COc2ccc(CN[C@H]3C[C@@H]3c3ccccc3)cc2)cc1", "note": "(relative stereo)", "values": [{"measurement": "inhibition at 1 h, 1 µM", "setting": "MAO-B [2]", "result": 52, "unit": "%"}, {"measurement": "inhibition at 1 h, 1 µM", "setting": "MAO-A [1]", "result": 93, "unit": "%"}]}
{"smiles": "C[C@H]1[C@@H](N)[C@H]1c1ccccc1.Cl", "note": "(relative stereo)", "values": [{"measurement": "inhibition (INH)", "setting": "[3]", "result": "Not Active"}, {"measurement": "inhibition", "setting": "[10]", "result": "inactive"}]}
{"smiles": "Fc1ccc(CN[C@H]2C[C@@H]2c2ccccc2)cc1F", "note": "(relative stereo)", "values": [{"measurement": "inhibition at 1 h, 1 µM", "setting": "MAO-A [1]", "result": 43, "unit": "%"}]}
{"smiles": "Fc1ccc(CN[C@H]2C[C@@H]2c2ccccc2)cc1", "note": "(relative stereo)", "values": [{"measurement": "inhibition at 1 h, 1 µM", "setting": "MAO-A [1]", "result": 27, "unit": "%"}]}
{"smiles": "Clc1ccc(CN[C@H]2C[C@@H]2c2ccccc2)cc1", "note": "(relative stereo)", "values": [{"measurement": "IC50", "setting": "[5]", "result": 14100, "unit": "nM"}, {"measurement": "inhibition", "setting": "[12]", "result": "Active"}, {"measurement": "inhibition at 0.5 µM", "setting": "THP-1 [13]", "result": 80, "unit": "%"}, {"measurement": "IC50", "setting": "[6]", "result": 206, "unit": "nM"}, {"measurement": "inhibition", "setting": "[14]", "result": "Active"}]}
{"smiles": "O=[N+]([O-])c1ccccc1CN[C@H]1C[C@@H]1c1ccccc1", "note": "(relative stereo)", "values": [{"measurement": "inhibition at 1 h, 1 µM", "setting": "MAO-B [2]", "result": 15, "unit": "%"}, {"measurement": "inhibition at 1 h, 1 µM", "setting": "MAO-A [1]", "result": 18, "unit": "%"}]}
{"smiles": "c1ccc(-c2ccc(CN[C@H]3C[C@@H]3c3ccccc3)cc2)cc1", "note": "(relative stereo)", "values": [{"measurement": "inhibition at 1 h, 1 µM", "setting": "MAO-B [2]", "result": 82, "unit": "%"}, {"measurement": "inhibition at 1 h, 1 µM", "setting": "MAO-A [1]", "result": 93, "unit": "%"}]}
{"smiles": "Brc1cccc(CN[C@H]2C[C@@H]2c2ccccc2)c1", "note": "(relative stereo)", "values": [{"measurement": "inhibition at 1 h, 1 µM", "setting": "MAO-A [1]", "result": 38, "unit": "%"}]}
{"smiles": "O=[N+]([O-])c1cccc(CN[C@H]2C[C@@H]2c2ccccc2)c1", "note": "(relative stereo)", "values": [{"measurement": "IC50", "setting": "[5]", "result": 1400, "unit": "nM"}, {"measurement": "inhibition", "setting": "[12]", "result": "Active"}, {"measurement": "inhibition at 0.5 µM", "setting": "THP-1 [13]", "result": 80, "unit": "%"}, {"measurement": "IC50", "setting": "[6]", "result": 488, "unit": "nM"}, {"measurement": "inhibition", "setting": "[14]", "result": "Active"}]}
{"smiles": "COc1ncccc1CN[C@H]1[C@@H](C)[C@@H]1c1ccccc1", "note": "(relative stereo)", "values": [{"measurement": "IC50", "setting": "[15]", "result": "Not Active"}, {"measurement": "inhibition at 1 h, 10 µM", "setting": "MAO-B [11]", "result": 14, "unit": "%"}, {"measurement": "IC50", "setting": "[6]", "result": 41400, "unit": "nM"}]}
{"smiles": "Clc1ccc(CN[C@H]2C[C@@H]2c2ccccc2)c(Cl)c1", "note": "(relative stereo)", "values": [{"measurement": "inhibition at 1 h, 10 µM", "setting": "MAO-B [11]", "result": 11, "unit": "%"}, {"measurement": "inhibition at 1 h, 10 µM", "setting": "MAO-A [4]", "result": 73, "unit": "%"}]}
{"smiles": "Fc1cccc(CN[C@H]2C[C@@H]2c2ccccc2)c1", "note": "(relative stereo)", "values": [{"measurement": "inhibition at 1 h, 10 µM", "setting": "MAO-B [11]", "result": 20, "unit": "%"}, {"measurement": "inhibition at 1 h, 10 µM", "setting": "MAO-A [4]", "result": 69, "unit": "%"}]}
{"smiles": "Cn1c(CN[C@H]2C[C@@H]2c2ccccc2)cc2ccccc21", "note": "(relative stereo)", "values": [{"measurement": "inhibition at 1 h, 10 µM", "setting": "MAO-B [11]", "result": 14, "unit": "%"}, {"measurement": "inhibition at 1 h, 10 µM", "setting": "MAO-A [4]", "result": 54, "unit": "%"}]}
{"smiles": "CC(C)(C)c1ccc(CN[C@H]2C[C@@H]2c2ccccc2)cc1", "note": "(relative stereo)", "values": [{"measurement": "inhibition at 1 h, 1 µM", "setting": "MAO-B [2]", "result": 27, "unit": "%"}, {"measurement": "inhibition at 1 h, 1 µM", "setting": "MAO-A [1]", "result": 22, "unit": "%"}]}
